Reference: ChEMBL document CHEMBL5046271, “Design, Synthesis, and Biological Evaluation of 2-Formyl Tetrahydronaphthyridine Urea Derivatives as New Selective Covalently Reversible FGFR4 Inhibitors” (J Med Chem, 2022)

Columns and labels:
[1] = molecular target: Fibroblast growth factor receptor 3 (Homo sapiens, UniProt P22607); assay: Inhibition of FGFR3 (unknown origin) using Tyr 04 peptide substrate measured after 2 hrs by FRET assay
[2] = molecular target: Fibroblast growth factor receptor 2 (Homo sapiens, UniProt P21802); assay: Inhibition of FGFR2 (unknown origin) using Tyr 04 peptide substrate measured after 2 hrs by FRET assay
[3] = molecular target: Fibroblast growth factor receptor 1 (Homo sapiens, UniProt P11362); assay: Inhibition of FGFR1 (unknown origin) using Tyr 04 peptide substrate measured after 2 hrs by FRET assay
Huh-7 = assay: Cytotoxicity against human Huh-7 cells harboring FGF19/FGFR4 assessed as inhibition of cell growth
MDA-MB-453 = assay: Cytotoxicity against human MDA-MB-453 cells harboring FGF19/FGFR4 assessed as inhibition of cell growth
Hep 3B2 = assay: Cytotoxicity against human Hep 3B2.1-7 cells harboring FGF19/FGFR4 assessed as inhibition of cell growth; details: Hep3B
NCI-H1581 = assay: Cytotoxicity against human NCI-H1581 cells harboring FGF19/FGFR4 assessed as inhibition of cell growth

Sequence of Fibroblast growth factor receptor 3 (P22607 whole entry): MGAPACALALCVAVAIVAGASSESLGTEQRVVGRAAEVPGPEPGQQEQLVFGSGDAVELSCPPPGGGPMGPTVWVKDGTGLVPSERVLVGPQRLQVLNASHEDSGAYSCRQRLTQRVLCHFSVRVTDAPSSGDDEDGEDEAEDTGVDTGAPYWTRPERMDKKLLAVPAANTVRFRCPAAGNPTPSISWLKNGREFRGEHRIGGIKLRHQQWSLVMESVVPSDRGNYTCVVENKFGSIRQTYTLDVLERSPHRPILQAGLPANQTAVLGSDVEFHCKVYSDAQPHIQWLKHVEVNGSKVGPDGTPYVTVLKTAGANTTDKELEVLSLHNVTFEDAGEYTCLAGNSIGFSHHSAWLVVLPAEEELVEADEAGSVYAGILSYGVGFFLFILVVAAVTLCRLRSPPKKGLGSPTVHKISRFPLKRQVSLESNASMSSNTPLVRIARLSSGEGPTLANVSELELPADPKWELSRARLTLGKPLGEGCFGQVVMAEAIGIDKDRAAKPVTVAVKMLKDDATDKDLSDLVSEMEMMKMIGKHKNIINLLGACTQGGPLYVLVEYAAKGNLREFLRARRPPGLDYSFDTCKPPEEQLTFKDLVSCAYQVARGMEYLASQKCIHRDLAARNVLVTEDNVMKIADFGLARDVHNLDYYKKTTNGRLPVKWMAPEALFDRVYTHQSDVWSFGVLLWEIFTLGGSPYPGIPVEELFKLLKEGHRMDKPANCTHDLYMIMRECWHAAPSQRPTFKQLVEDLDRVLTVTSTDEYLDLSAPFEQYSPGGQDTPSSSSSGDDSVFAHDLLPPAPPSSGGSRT
Sequence of Fibroblast growth factor receptor 2 (P21802 whole entry): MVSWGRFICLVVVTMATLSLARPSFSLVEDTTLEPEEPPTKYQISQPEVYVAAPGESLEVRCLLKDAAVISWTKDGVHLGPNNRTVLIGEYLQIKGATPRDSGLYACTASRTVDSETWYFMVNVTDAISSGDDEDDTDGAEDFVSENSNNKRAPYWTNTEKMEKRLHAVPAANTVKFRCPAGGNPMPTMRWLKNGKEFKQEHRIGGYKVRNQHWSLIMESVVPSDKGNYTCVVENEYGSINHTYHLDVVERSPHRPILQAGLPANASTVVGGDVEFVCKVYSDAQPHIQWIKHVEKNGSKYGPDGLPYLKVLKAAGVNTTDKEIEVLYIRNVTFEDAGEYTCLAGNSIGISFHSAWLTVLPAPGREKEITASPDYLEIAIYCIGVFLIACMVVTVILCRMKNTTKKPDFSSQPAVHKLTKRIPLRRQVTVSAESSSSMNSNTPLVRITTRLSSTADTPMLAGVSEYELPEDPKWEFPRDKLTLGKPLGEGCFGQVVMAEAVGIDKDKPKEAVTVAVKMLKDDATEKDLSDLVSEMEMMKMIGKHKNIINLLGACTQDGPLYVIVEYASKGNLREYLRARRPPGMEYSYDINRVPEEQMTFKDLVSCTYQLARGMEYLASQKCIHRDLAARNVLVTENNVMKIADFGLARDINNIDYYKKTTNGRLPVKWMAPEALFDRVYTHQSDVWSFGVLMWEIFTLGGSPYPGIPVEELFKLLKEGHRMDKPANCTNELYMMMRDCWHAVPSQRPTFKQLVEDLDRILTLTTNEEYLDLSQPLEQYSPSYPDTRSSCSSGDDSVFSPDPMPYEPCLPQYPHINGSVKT
Sequence of Fibroblast growth factor receptor 1 (P11362 whole entry): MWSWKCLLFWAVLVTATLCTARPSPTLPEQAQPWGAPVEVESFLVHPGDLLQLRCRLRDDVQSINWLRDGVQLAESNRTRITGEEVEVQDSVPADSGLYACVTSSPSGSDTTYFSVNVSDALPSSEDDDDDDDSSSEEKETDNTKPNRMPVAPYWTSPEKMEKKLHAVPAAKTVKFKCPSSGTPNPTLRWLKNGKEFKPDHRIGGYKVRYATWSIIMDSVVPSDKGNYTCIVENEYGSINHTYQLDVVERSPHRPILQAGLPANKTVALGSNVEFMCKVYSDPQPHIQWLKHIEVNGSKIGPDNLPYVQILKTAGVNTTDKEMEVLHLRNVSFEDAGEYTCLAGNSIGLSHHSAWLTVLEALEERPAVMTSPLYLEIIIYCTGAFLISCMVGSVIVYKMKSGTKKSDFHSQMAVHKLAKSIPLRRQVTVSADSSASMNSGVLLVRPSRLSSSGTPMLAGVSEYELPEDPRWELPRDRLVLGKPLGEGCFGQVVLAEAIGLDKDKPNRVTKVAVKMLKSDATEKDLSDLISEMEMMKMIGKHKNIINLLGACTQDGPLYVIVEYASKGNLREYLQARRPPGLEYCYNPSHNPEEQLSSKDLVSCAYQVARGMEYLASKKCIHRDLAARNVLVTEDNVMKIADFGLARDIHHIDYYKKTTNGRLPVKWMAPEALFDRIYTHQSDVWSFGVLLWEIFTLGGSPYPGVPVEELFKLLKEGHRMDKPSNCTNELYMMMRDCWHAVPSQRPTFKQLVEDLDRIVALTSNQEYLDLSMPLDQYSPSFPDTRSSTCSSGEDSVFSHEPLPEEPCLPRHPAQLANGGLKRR

Structure (SMILES)	IC50 [1] [µM]	IC50 [2] [µM]	IC50 [3] [µM]	IC50 (Huh-7) [µM]	IC50 (MDA-MB-453) [µM]	IC50 (Hep 3B2) [µM]	IC50 (NCI-H1581) [µM]
CC(C)Oc1cc(NC(=O)N2CCCc3ccc(C=O)nc32)ncc1C#Cc1cnccn1	> 10	> 10	> 10				
COc1cc(C#Cc2cnc(NC(=O)N3CCCc4cc(CN5CCN(C)CC5=O)c(C=O)nc43)cc2OC(C)C)cc(OC)c1	> 10	> 10	> 10	0.0658	0.466	1.34	> 3
O=Cc1ccc2c(n1)N(C(=O)Nc1cc(NC3CCCC3)c(C#Cc3ccccn3)cn1)CCC2	> 10	> 10	> 10				
CC(C)Oc1cc(NC(=O)N2CCCc3cc(CN4CCN(C)CC4=O)c(C=O)nc32)ncc1C#Cc1ccccn1	> 10	> 10	> 10	0.00624	1.33	0.658	> 3
COC[C@@H](C)Nc1cc(NC(=O)N2CCCc3ccc(C=O)nc32)ncc1C#Cc1cccnc1	> 10	> 10	> 10				
O=Cc1ccc2c(n1)N(C(=O)Nc1cc(F)c(C#Cc3cccnc3)cn1)CCC2	> 10	> 10	> 10				
CC(C)Oc1cc(NC(=O)N2CCCc3ccc(C=O)nc32)ncc1C#Cc1cccnc1	> 10	> 10	> 10				
O=Cc1ccc2c(n1)N(C(=O)Nc1cc(F)c(C#Cc3ccccn3)cn1)CCC2	> 10	> 10	> 10				
COc1cccc(C#Cc2cnc(NC(=O)N3CCCc4ccc(C=O)nc43)cc2OC(C)C)c1	> 10	> 10	> 10				
C=CC(=O)Nc1cccc(C)c1Nc1ncc2cc(-c3c(Cl)c(OC)cc(OC)c3Cl)ccc2n1	> 10	> 10	> 10		0.12	0.55	> 43.3
COc1cc(OC)cc(-c2cnc(NC(=O)N3CCCc4ccc(C=O)nc43)cc2OC(C)C)c1	> 10	> 10	> 10				
CC(C)Oc1cc(NC(=O)N2CCCc3ccc(C=O)nc32)ncc1C#Cc1ccc(C#N)cc1	> 10	> 10	> 10				
CC(C)Oc1cc(NC(=O)N2CCCc3ccc(C=O)nc32)ncc1C#Cc1ccncc1	> 10	> 10	> 10				
COCCNc1cc(NC(=O)N2CCCc3ccc(C=O)nc32)ncc1C#Cc1cccnc1	> 10	> 10	> 10				
COCCNc1cc(NC(=O)N2CCCc3ccc(C=O)nc32)ncc1C#N	> 10	> 10	> 10				
CC(C)Oc1cc(NC(=O)N2CCCc3ccc(C=O)nc32)ncc1C#Cc1ccccn1	> 10	> 10	> 10				

Structure (SMILES)	IC50 [1] [µM]	IC50 [2] [µM]	IC50 [3] [µM]	IC50 (Huh-7) [µM]	IC50 (MDA-MB-453) [µM]	IC50 (Hep 3B2) [µM]	IC50 (NCI-H1581) [µM]
CC(C)CNc1cc(NC(=O)N2CCCc3ccc(C=O)nc32)ncc1C#Cc1ccccn1	> 10	> 10	> 10				
COCCNc1cc(NC(=O)N2CCCc3ccc(C=O)nc32)ncc1C#Cc1ccccn1	> 10	> 10	> 10				
CC(C)Oc1cc(NC(=O)N2CCCc3ccc(C=O)nc32)ncc1C#Cc1ccccc1	> 10	> 10	> 10				
COCCOc1cc(NC(=O)N2CCCc3ccc(C=O)nc32)ncc1C#Cc1cccnc1	> 10	> 10	> 10				
COc1cc(OC)c(Cl)c(C#Cc2cnc(NC(=O)N3CCCc4ccc(C=O)nc43)cc2OC(C)C)c1Cl	> 10	> 10	> 10				
CC(C)Oc1cc(NC(=O)N2CCCc3ccc(C=O)nc32)ncc1C#Cc1cccc(C#N)c1	> 10	> 10	> 10				
COc1cc(CCc2cnc(NC(=O)N3CCCc4cc(CN5CCN(C)CC5=O)c(C=O)nc43)cc2OC(C)C)cc(OC)c1	> 10	> 10	> 10	0.0149	2.26	1.45	> 3
COCCNc1cc(NC(=O)N2CCCc3cc(CN4CCN(C)CC4=O)c(C=O)nc32)ncc1C#N [FGF401]				0.0089	0.92	0.21	> 3
CC(C)Oc1cc(NC(=O)N2CCCc3ccc(C=O)nc32)ncc1C#Cc1cncn1C	> 10	> 10	> 10				
CC(C)Oc1cc(NC(=O)N2CCCc3ccc(C=O)nc32)ncc1C#Cc1cncnc1	> 10	> 10	> 10				
COc1cc(CCc2cnc(NC(=O)N3CCCc4ccc(C=O)nc43)cc2OC(C)C)cc(OC)c1	> 10	> 10	> 10				
COc1cccc(CCc2cnc(NC(=O)N3CCCc4ccc(C=O)nc43)cc2OC(C)C)c1	> 10	> 10	> 10				
COCCOc1cc(NC(=O)N2CCCc3ccc(C=O)nc32)ncc1C#Cc1ccccn1	> 10	> 10	> 10				
COC[C@H](C)Nc1cc(NC(=O)N2CCCc3ccc(C=O)nc32)ncc1C#Cc1cccnc1	> 10	> 10	> 10				
COc1cc(C#Cc2cnc(NC(=O)N3CCCc4ccc(C=O)nc43)cc2OC(C)C)cc(OC)c1	> 10	> 10	> 10				
O=Cc1ccc2c(n1)N(C(=O)Nc1cc(NC3CC3)c(C#Cc3ccccn3)cn1)CCC2	> 10	> 10	> 10				
